Patent publication US8415156B2, “Recombinant laminin-521” (Biolamina AB, priority 2010, dated 2013)

Assays:
HS181 cells = assay: Single cell survival / cell adhesion, 1 day after plating (Example 1); format: cell-based, human; settings: for single cell survival / cells remaining attached 24 hours after plating: O3 medium without any additives, completely dissociated HS181 cells
Description: Human ES cells were cultured on r-laminin-521-coated laboratory dishes in chemically defined O3 medium (described in Rodin et al., Nature Biotechnol., vol. 28, pp. 611-615 (2010)) at 37° C. in 5% CO2. Cells were routinely passed once every 10-12 days by exposure to Trypsin-EDTA solution (GIBCO Invitrogen) for 5 minutes at 37° C. They were then gently pipetted to break into single-cell suspension and defined trypsin inhibitor (GIBCO Invitrogen) was added. The cell suspension was centrifuged […], the supernatant discarded, the cell pellet resuspended in prewarmed O3 medium, and cells were then passed through a 40 μm sieve. After that cells were plated on new r-laminin-521-coated dishes at a concentration 30 Kcells/cm^2 (1:25-1:30 split ratio). Cells were fed once a day with fresh medium prewarmed in an incubator for 1 hour, except for the first day after a passage, when only a few drops of fresh medium were added. Control cells of the same line were cultured on Matrigel (BD Biosciences) in O3 medium as described in Rodin et al., Nature Biotechnol., vol. 28, pp. 611-615 (2010). Control cells were passaged in pieces.
Ninety-six-well tissue cell culture plates were coated overnight at 4° C. with sterile solutions of the ECM proteins mouse LN-111 (Invitrogen), human recombinant LN-511, and human recombinant LN-521, all at a concentration of 30 μg/ml (5 μg/cm^2). For control cells, BD Matrigel™ hESC qualified (BD Biosciences) was used according to the manufacturer's instructions.
The assay was performed as described (Extracellular Matrix Protocols, 2000). Briefly, 96-well plates were coated by extracellular matrix proteins as described above and blocked by O3 medium containing bovine serum albumin. The ES cells were plated at a cell density of 600 cell/mm^2 upon extracellular matrix-coated plates and were left to adhere for either 1 hour or 1 day at the cell incubator. Non-adherent cells were washed away, and adherent cells were fixed for 20 min by 5% glutaraldehyde, stained by 0.1% Crystal Violet.

hES cells [1] = assay: Cell survival assay, 24 hours (Example 2); format: cell-based, human; settings: for survival of hES cells plated from single cell suspension after 24 hours: O3 medium, absence of ROCK inhibitor
Description: Tissue cell culture plates were coated overnight at 4° C. with sterile solutions of the ECM proteins, such as human recombinant LN-521, all at a concentration of 30 μg/ml (5 μg/cm^2). Control plates were coated with Matrigel according to the STEMCELL Technologies' instructions. Prior to use, dishes were pre-warmed in an incubator for one hour after which prewarmed O3 medium was added without additional washing of the dish. After applying a fresh LN-521 solution to a new dish, the remaining LN-521 solution could be used at least once more. All the adhesion, survival, and inhibition of survival experiments were carried out using fresh coating materials.
Briefly, 96-well plates were coated by extracellular matrix proteins as described above and blocked by O3 medium containing bovine serum albumin. The ES cells were plated at cell density of 50,000 cells/cm^2 onto extracellular matrix-coated plates and left to adhere for 1 hour in a cell incubator. After that the plates were washed 3 times with the medium to remove the non-adherent cells, and then the adherent cells were fixed for 20 minutes by 5% glutaraldehyde, stained by 0.1% Crystal Violet. (Kebo Lab, Spanga, Sweden, www.kebolab.se). After one hour and 3 washes with water, Crystal Violet was extracted with 10% acetic acid and quantified by measuring optical density at 570 nm. All the experiments were performed in quadruplicate.
The survival assay was performed as described for the cell adhesion assay above, except that the cells were left in the cell incubator for 24 hours. For inhibition of survival assay, the cells were kept in a medium with function blocking antibodies at the concentrations recommended by the manufacturer or pathway inhibitors at concentrations indicated in the text for 30 minutes, and then plated on the coated dishes. All the experiments were performed in quadruplicate.
Pluripotent hES cells express α1, α5, β1, β2 and γ1 laminin chains. To compare the adhesion and clonal survival of hES cells plated from single cell suspension to different coating substrata, hES cells growing as monolayers on LN-511 or as clusters on a feeder layer were trypsinized into single cell suspension in O3 medium and plated on cell culture dishes coated with Matrigel, LN-111, LN-511, LN-521 or a mixture of LN-511 and LN-521, in the absence or presence of a ROCK inhibitor (Y-27632) and analyzed after 24 hours.

myosin light chain (MLC) = assay: Western blot of phosphorylated myosin light chain; format: cell-based, human; settings: one and six hours after plating
Description: HS181 cells were trypsinized into single cell suspension as described above. For inhibition experiments, the cells were kept in O3 medium with blocking antibodies or pathway inhibitors for 30 minutes and then 450K cells were plated on 35 mm dishes precoated with the appropriate matrix coating. For other experiments, same number of cells was plated directly after trypsinization. […] After two washings in ice-cold PBS, the plates with cells were snap frozen in liquid nitrogen and stored at −80° C. To prepare samples for western blots and ELISA, the plates were slowly thawed and kept on ice with 100-150 μl of lysis buffer (50 mM Tris-HCl, pH7.5, 150 mM NaCl, 0.5% deoxycholate, 0.5% SDS, 1% Triton X-100, 1% Igepal, Complete™ (Roche) and Phospho-Stop™ (Roche)) on top. Then, the cells were scraped, pipetted and sheared through a 27G ¾″ needle. After that, the cell pellets were clarified by centrifugation at 16,100 rcf for 15 minutes at 4° C. For western blots, 4-12% gradient gels were used for SDS electrophoresis and the proteins were transferred to PVDF membranes. The membrane was hybridized with the antibody of interest according to the manufacturer's instructions. Chemoluminescent HRP-substrate from Amersham Biosciences was used for visualization. For the densitometry analysis the films were scanned at 2,400 dpi and analyzed by the Chemilmager5500 program (1D-Multi Line densitometry mode). […]

human ES cells = settings: cited from earlier work
mouse ES cells = settings: without LIF or feeder cells; cited from earlier work
Integrin α6β1 = Integrin α6β1 (Homo sapiens, UniProt P05556+P23229); settings: cited from earlier work
[2] = system: human embryonic stem cell; assay: Survival after dissociation into single cell suspension (description); format: cell-based; settings: O3 medium; 30 Kcells/cm^2; precoated dishes
From the text: In other aspects, the present disclosure provides a new material, isolated laminin-521, which permits human embryonic stem cell survival after dissociation into single cell suspension. The stem cells were dissociated into single cell suspension by Trypsin-EDTA treatment, pelleted by centrifugation, resuspended into O3 medium, filtered through a 40 μm sieve, and plated at a density of 30 Kcells/cm^2 on cell culture dishes precoated by either isolated laminin-521, laminin-511, or Matrigel. After one day in culture, the cells plated on Matrigel died, as is known in the art.

hES cells [3] = assay: Clonal survival of individualized hES cells (Example 4); format: cell-based, human; settings: mTeSR1
Description: hES cells were plated in mTeSR1 medium on different coatings at a density of 250 cells per cm^2 and monitored after 5 days in culture using an alkaline phosphatase staining kit.
Next, combinations of laminin-521 and E-Cadherin were tested to determine whether the combinations could sustain clonal survival of the cells. Fixed amounts of laminin-521 were used for the cell culture dish coating in combination with titrated E-Cadherin.
Additional tests were performed to test the effects of various modifications to the mTeSR1 medium. A mixture of E-Cadherin to laminin-521 in a ratio of about 1:10 w/w was used to coat the plates. […] Time-lapse photography of the cells confirmed that laminin-521/E-Cadherin coatings facilitated cell survival through proliferation of the single cells, not through the aggregation of different cells.

Chain of Integrin α6β1 (P23229 24-1130): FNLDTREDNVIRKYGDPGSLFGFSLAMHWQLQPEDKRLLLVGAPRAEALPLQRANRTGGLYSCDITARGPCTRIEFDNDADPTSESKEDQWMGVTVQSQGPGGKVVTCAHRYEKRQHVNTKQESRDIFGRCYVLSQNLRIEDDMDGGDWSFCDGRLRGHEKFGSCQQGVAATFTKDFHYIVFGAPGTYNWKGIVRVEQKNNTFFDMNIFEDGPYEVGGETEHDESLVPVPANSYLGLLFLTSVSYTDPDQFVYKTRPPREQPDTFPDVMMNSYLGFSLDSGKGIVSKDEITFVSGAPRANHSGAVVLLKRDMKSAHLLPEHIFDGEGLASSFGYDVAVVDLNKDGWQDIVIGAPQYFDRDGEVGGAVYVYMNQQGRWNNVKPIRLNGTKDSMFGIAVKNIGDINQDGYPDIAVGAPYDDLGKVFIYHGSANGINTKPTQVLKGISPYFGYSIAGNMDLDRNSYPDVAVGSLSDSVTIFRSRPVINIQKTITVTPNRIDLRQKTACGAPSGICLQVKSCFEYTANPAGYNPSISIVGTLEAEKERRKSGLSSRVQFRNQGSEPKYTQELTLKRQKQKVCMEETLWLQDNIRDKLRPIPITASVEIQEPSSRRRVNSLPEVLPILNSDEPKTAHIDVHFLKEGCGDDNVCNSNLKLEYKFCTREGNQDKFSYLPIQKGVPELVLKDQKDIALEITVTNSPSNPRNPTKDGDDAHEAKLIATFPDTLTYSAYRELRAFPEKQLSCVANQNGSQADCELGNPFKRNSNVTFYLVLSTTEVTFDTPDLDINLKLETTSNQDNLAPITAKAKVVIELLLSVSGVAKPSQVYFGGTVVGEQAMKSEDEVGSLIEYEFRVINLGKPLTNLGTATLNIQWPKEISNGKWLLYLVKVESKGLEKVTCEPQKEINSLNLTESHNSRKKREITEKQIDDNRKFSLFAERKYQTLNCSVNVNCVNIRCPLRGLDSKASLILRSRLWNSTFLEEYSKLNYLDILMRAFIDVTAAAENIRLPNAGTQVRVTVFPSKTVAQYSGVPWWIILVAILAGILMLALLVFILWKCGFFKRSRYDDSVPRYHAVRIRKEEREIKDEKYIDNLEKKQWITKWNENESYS
Chain of Integrin α6β1 (P05556 21-798): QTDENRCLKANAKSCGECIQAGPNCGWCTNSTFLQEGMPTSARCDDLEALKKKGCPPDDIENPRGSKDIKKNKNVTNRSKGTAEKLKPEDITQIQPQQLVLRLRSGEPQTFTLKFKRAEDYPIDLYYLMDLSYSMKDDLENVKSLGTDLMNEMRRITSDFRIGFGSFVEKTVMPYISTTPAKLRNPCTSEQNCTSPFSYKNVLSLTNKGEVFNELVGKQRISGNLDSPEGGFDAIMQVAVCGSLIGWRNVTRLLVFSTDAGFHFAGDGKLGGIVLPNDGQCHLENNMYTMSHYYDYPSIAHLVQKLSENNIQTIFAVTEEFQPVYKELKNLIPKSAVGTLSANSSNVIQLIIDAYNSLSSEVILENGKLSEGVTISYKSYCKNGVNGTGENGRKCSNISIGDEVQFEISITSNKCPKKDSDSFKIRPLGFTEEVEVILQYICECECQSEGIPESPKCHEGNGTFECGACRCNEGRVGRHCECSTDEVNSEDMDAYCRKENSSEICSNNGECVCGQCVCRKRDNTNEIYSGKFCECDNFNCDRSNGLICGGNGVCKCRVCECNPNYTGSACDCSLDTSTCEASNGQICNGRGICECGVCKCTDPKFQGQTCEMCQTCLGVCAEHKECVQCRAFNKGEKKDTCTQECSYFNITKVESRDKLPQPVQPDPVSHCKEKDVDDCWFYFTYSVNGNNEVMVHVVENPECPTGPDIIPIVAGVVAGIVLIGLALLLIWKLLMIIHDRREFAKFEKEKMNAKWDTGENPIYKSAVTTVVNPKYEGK

Molecule: C[C@@H](N)[C@H]1CC[C@H](C(=O)Nc2ccncc2)CC1 [Y-27632, reference compound]
- cells remaining attached after one day with ROCK inhibitor (HS181 cells; O3 medium treated with Y-27632, 5 coatings): remained attached on all 5 coatings
- cell shape of cells growing on LN-521 24 hours after plating (hES cells [1]; LN-521 row: absence of ROCK inhibitor, Y-27632 row: presence of ROCK inhibitor): spindle or crescent like shape
- survival of hES cells after 24 hours in the presence of ROCK inhibitor (hES cells [1]; all coating surfaces): survived on all surfaces

Molecule: LN-111: mouse laminin-111 (Invitrogen), indicated as LN-111 if not otherwise stated
- single cell survival / cells remaining attached 24 hours after plating (HS181 cells): almost no cells remained attached
- survival of hES cells plated from single cell suspension after 24 hours (hES cells [1]): did not survive

Molecule: LN-121: human recombinant laminin with α1, β2 and γ1 chains produced in HEK293 cells
- survival of hES cells plated from single cell suspension after 24 hours (hES cells [1]): failed to survive

Molecule: LN-511: human recombinant laminin-511 coating
- single cell survival / cells remaining attached 24 hours after plating (HS181 cells): at a less extent
- phosphorylation of MLC compared with cells on Matrigel and LN-111 (myosin light chain (MLC)): even higher
- time human ES cells maintain pluripotency and can generate teratomas in SCID mice (human ES cells): over 3 months
- survival of hES cells plated from single cell suspension after 24 hours (hES cells [1]): did so as single cells
- time of supported self-renewal of mouse ES cells (mouse ES cells): over 5 months
- binding affinity of integrin α6β1 (Integrin α6β1): higher than that for LN-111
- survival of hES cells plated from single cell suspension after one day in culture [2]: in most cases on laminin-511 survived and started to proliferate

Molecule: albumin: albumin of the mTeSR1 medium, concentration increased 2×
- effect of 2× increase in albumin concentration on clonal survival (hES cells [3]; laminin-521/E-Cadherin matrix): significantly improved clonal survival

Molecule: human recombinant LN-111: human recombinant laminin with α1, β1 and γ1 chains produced in HEK293 cells
- survival of hES cells plated from single cell suspension after 24 hours (hES cells [1]): failed to survive

B1: E-Cadherin: epithelial-cadherin, most abundant cadherin isoform on the human ES cell surface (protein, UniProt P12830 155-882, looked up)
Cadherin-1: DWVIPPISCPENEKGPFPKNLVQIKSNKDKEGKVFYSITGQGADTPPVGVFIIERETGWLKVTEPLDRERIATYTLFSHAVSSNGNAVEDPMEILITVTDQNDNKPEFTQEVFKGSVMEGALPGTSVMEVTATDADDDVNTYNAAIAYTILSQDPELPDKNMFTINRNTGVISVVTTGLDRESFPTYTLVVQAADLQGEGLSTTATAVITVTDTNDNPPIFNPTTYKGQVPENEANVVITTLKVTDADAPNTPAWEAVYTILNDDGGQFVVTTNPVNNDGILKTAKGLDFEAKQQYILHVAVTNVVPFEVSLTTSTATVTVDVLDVNEAPIFVPPEKRVEVSEDFGVGQEITSYTAQEPDTFMEQKITYRIWRDTANWLEINPDTGAISTRAELDREDFEHVKNSTYTALIIATDNGSPVATGTGTLLLILSDVNDNAPIPEPRTIFFCERNPKPQVINIIDADLPPNTSPFTAELTHGASANWTIQYNDPTQESIILKPKMALEVGDYKINLKLMDNQNKDQVTTLEVSVCDCEGAAGVCRKAQPVEAGLQIPAILGILGGILALLILILLLLLFLRRRAVVKEPLLPPEDDTRDNVYYYDEEGGGEEDQDFDLSQLHRGLDARPEVTRNDVAPTLMSVPRYLPRPANPDEIGNFIDENLKAADTDPTAPPYDSLLVFDYEGSGSEAASLSSLNSSESDKDQDYDYLNEWGNRFKKLADMYGGGEDD
- clonal survival of individualized hES cells (hES cells [3]; 250 cells per cm^2, 5 days, alkaline phosphatase staining): Neither laminin-521 nor E-Cadherin alone permitted efficient clonal survival
